# Experimental data as given in US6737383B1, “Herbicidal oxadiazolidines” (priority 1999, dated 2004).
# Key:
# pigweed = assay: Test B pre/postemergence pigweed; format: in vivo, Amaranthus retroflexus; settings: for Redroot pigweed plant response rating (0 to 10 scale): 0 is no effect
# How it was run: (§1)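 Herbicidal effect was estimated by eye on a ten-point control scale after plants spent twelve to sixteen days in a greenhouse following soil or foliar treatment. Foliar sprays targeted plants at one to four leaves; all doses were formulated in a non-phytotoxic solvent with surfactant.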
# sugar beet = assay: Test B pre/postemergence sugar beet; format: in vivo, Beta vulgaris; settings: for Sugarbeets plant response rating (0 to 10 scale): 0 is no effect
# How it was run: as §1
# purple nutsedge = assay: Test B pre/postemergence purple nutsedge; format: in vivo, Cyperus rotundus; settings: for Nutsedge plant response rating (0 to 10 scale): 0 is no effect
# How it was run: as §1
# rice = assay: Test B flood test rice; format: in vivo, Oryza sativa
# How it was run: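 Read-out is a visual response score from 0 (no effect) to 10 (complete control), assigned by comparison with untreated controls. Treatment was applied at the 2-leaf stage, and plants stayed in the greenhouse for twelve to sixteen days before scoring.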
# [1] = Postemergence, Rate 125 g/ha, scale of 0 to 10 where 0 is no effect and 10 is complete control
# [2] = Preemergence, Rate 62 g/ha, scale of 0 to 10 where 0 is no effect and 10 is complete control
# [3] = Preemergence, Rate 125 g/ha, 10 is complete control
# [4] = Preemergence, Rate 250 g/ha, scale 0 to 10, 0 is no effect, 10 is complete control
# [5] = Preemergence, Rate 500 g/ha, scale 0 to 10 (0 no effect, 10 complete control)
# [6] = Rate 62 g/ha, Postemergence, scale of 0 to 10 where 0 is no effect and 10 is complete control
# [7] = Rate 250 g/ha, Postemergence, scale 0 to 10, 0 is no effect, 10 is complete control
# [8] = Rate 500 g/ha, Postemergence, scale 0 to 10
# [9] = Rate 125 g/ha, Postemergence, scale 0 to 10
# [10] = Rate 62 g/ha, headed Pre-emergence (flood test species), scale 0 to 10 (0 no effect, 10 complete control)
# [11] = Rate 125 g/ha, Pre-emergence, flood test species, scale 0 to 10 where 0 is no effect and 10 is complete control
# [12] = Rate 250 g/ha, Pre-emergence, flood-test species, scale 0 to 10, 0 is no effect, 10 is complete control
# [13] = Rate 500 g/ha, headed Pre-emergence (flood test species), scale 0 to 10 (0 no effect, 10 complete control)
# [14] = Postemergence, Rate 1000 g/ha, scale 0 to 10 (0 no effect, 10 complete control)
# [15] = Rate 1000 g/ha, Preemergence, scale 0 to 10 (0 no effect, 10 complete control)
# [16] = Rate 2000 g/ha, Postemergence, scale 0 to 10
# [17] = Rate 2000 g/ha, Preemergence, scale 0 to 10
# [18] = Rate 1000 g/ha, Pre-emergence (as headed), scale 0 to 10
structure (smiles),measurement,setting,value
CC(C)N(C(=O)n1oc(=O)[nH]c1=O)c1ccc(F)cc1 [Compound 164],Redroot pigweed plant response rating,pigweed; [1],0
same,Redroot pigweed plant response rating,pigweed; [2],0
same,Redroot pigweed plant response rating (0 to 10 scale),pigweed; [3],0
same,Redroot pigweed plant response rating,pigweed; [4],0
same,Redroot pigweed plant response rating,pigweed; [5],0
same,Redroot pigweed plant response rating,pigweed; [6],0
same,"Plant response rating, Redroot pigweed",pigweed; [7],0
same,Redroot pigweed plant response rating,pigweed; [8],0
same,Sugarbeets plant response rating,sugar beet; [1],0
same,Sugarbeets plant response rating,sugar beet; [2],0
same,Sugarbeets plant response rating (0 to 10 scale),sugar beet; [3],0
same,Sugarbeets plant response rating,sugar beet; [4],0
same,Sugarbeets plant response rating,sugar beet; [5],0
same,Sugarbeets plant response rating,sugar beet; [6],0
same,"Plant response rating, Sugarbeets",sugar beet; [7],0
same,Sugarbeets plant response rating,sugar beet; [8],0
same,Nutsedge plant response rating,purple nutsedge; [1],0
same,Nutsedge plant response rating,purple nutsedge; [2],0
same,Nutsedge plant response rating (0 to 10 scale),purple nutsedge; [3],0
same,Nutsedge plant response rating,purple nutsedge; [4],0
same,Nutsedge plant response rating,purple nutsedge; [5],0
same,Nutsedge plant response rating,purple nutsedge; [6],0
same,"Plant response rating, Nutsedge",purple nutsedge; [7],0
same,Nutsedge plant response rating,purple nutsedge; [8],0
same,Rice plant response rating,"rice; Postemergence (flood test species), Rate 125 g/ha, scale of 0 to 10 where 0 is no effect and 10 is complete control",0
same,Rice plant response rating,"rice; Rate 62 g/ha, Postemergence section, flood test species, scale of 0 to 10 where 0 is no effect and 10 is complete control",0
same,"Plant response rating, Rice","rice; Rate 250 g/ha, Postemergence (flood test), scale 0 to 10, 0 is no effect, 10 is complete control",0
same,Rice plant response rating,"rice; Rate 500 g/ha, listed under Postemergence (flood test species), scale 0 to 10",0
COc1nc(OC)nc(N(C(=O)n2oc(=O)n(-c3c(C)cccc3C)c2=O)C(C)C)n1 [Compound 180],Redroot pigweed plant response rating,pigweed; [2],0
same,Redroot pigweed plant response rating (0 to 10 scale),pigweed; [3],0
same,Redroot pigweed plant response rating,pigweed; [4],0
same,Redroot pigweed plant response rating,pigweed; [5],0
same,Redroot pigweed plant response rating,pigweed; [6],0
same,Redroot pigweed plant response rating,pigweed; [9],0
same,"Plant response rating (0 to 10; 0 is no effect, 10 is complete control), Redroot pigweed","pigweed; Rate 250 g/ha, Postemergence",0
same,Redroot pigweed plant response rating,pigweed; [8],0
same,Sugarbeets plant response rating,sugar beet; [2],0
same,Sugarbeets plant response rating (0 to 10 scale),sugar beet; [3],0
same,Sugarbeets plant response rating,sugar beet; [4],0
same,Sugarbeets plant response rating,sugar beet; [5],0
same,Sugarbeets plant response rating,sugar beet; [6],0
same,Sugarbeets plant response rating,sugar beet; [9],0
same,"Plant response rating (0 to 10; 0 is no effect, 10 is complete control), Sugarbeets","sugar beet; Rate 250 g/ha, Postemergence",0
same,Sugarbeets plant response rating,sugar beet; [8],0
same,Nutsedge plant response rating,purple nutsedge; [2],0
same,Nutsedge plant response rating (0 to 10 scale),purple nutsedge; [3],0
same,Nutsedge plant response rating,purple nutsedge; [4],0
same,Nutsedge plant response rating,purple nutsedge; [5],0
same,Nutsedge plant response rating,purple nutsedge; [6],0
same,Nutsedge plant response rating,purple nutsedge; [9],0
same,"Plant response rating (0 to 10; 0 is no effect, 10 is complete control), Nutsedge","purple nutsedge; Rate 250 g/ha, Postemergence",0
same,Nutsedge plant response rating,purple nutsedge; [8],0
same,Rice plant response rating,rice; [10],0
same,Rice plant response rating,rice; [11],0
same,Rice plant response rating,rice; [12],0
same,"Plant response rating, Rice",rice; [13],0
CCN(C(=O)n1oc(=O)n(N(C)c2ccccc2)c1=O)C1CCCCC1 [Compound 183],Redroot pigweed plant response rating,pigweed; [14],0
same,Redroot pigweed plant response rating,pigweed; [2],0
same,Redroot pigweed plant response rating (0 to 10 scale),pigweed; [3],0
same,Redroot pigweed plant response rating,pigweed; [4],0
same,Redroot pigweed plant response rating,pigweed; [5],0
same,Redroot pigweed plant response rating,pigweed; [6],0
same,Redroot pigweed plant response rating,pigweed; [9],0
same,"Plant response rating (0 to 10; 0 is no effect, 10 is complete control), Redroot pigweed","pigweed; Rate 250 g/ha, Postemergence",0
same,Redroot pigweed plant response rating,pigweed; [8],0
same,"Plant response rating, Redroot pigweed",pigweed; [15],0
same,Redroot pigweed plant response rating,pigweed; [16],0
same,Redroot pigweed plant response rating,pigweed; [17],0
same,Sugarbeets plant response rating,sugar beet; [14],0
same,Sugarbeets plant response rating,sugar beet; [2],0
same,Sugarbeets plant response rating (0 to 10 scale),sugar beet; [3],0
same,Sugarbeets plant response rating,sugar beet; [4],0
same,Sugarbeets plant response rating,sugar beet; [5],0
same,Sugarbeets plant response rating,sugar beet; [6],0
same,Sugarbeets plant response rating,sugar beet; [9],0
same,"Plant response rating (0 to 10; 0 is no effect, 10 is complete control), Sugarbeets","sugar beet; Rate 250 g/ha, Postemergence",0
same,Sugarbeets plant response rating,sugar beet; [8],0
same,"Plant response rating, Sugarbeets",sugar beet; [15],0
same,Sugarbeets plant response rating,sugar beet; [16],0
same,Sugarbeets plant response rating,sugar beet; [17],0
same,Nutsedge plant response rating,purple nutsedge; [14],0
same,Nutsedge plant response rating,purple nutsedge; [2],0
same,Nutsedge plant response rating (0 to 10 scale),purple nutsedge; [3],0
same,Nutsedge plant response rating,purple nutsedge; [4],0
same,Nutsedge plant response rating,purple nutsedge; [5],0
same,Nutsedge plant response rating,purple nutsedge; [6],0
same,Nutsedge plant response rating,purple nutsedge; [9],0
same,"Plant response rating (0 to 10; 0 is no effect, 10 is complete control), Nutsedge","purple nutsedge; Rate 250 g/ha, Postemergence",0
same,Nutsedge plant response rating,purple nutsedge; [8],0
same,"Plant response rating, Nutsedge",purple nutsedge; [15],0
same,Nutsedge plant response rating,purple nutsedge; [16],0
same,Nutsedge plant response rating,purple nutsedge; [17],0
same,Rice plant response rating,rice; [10],0
same,Rice plant response rating,rice; [11],0
same,Rice plant response rating,rice; [12],0
same,"Plant response rating, Rice",rice; [13],0
same,Rice plant response rating,rice; [18],0
same,Rice plant response rating,"rice; Rate 2000 g/ha, Pre-emergence (as headed), scale 0 to 10",0
CC(C)N(C(=O)n1oc(=O)n(C2CCCC(C(F)(F)F)C2)c1=O)c1ccc(F)cc1 (stereo not drawn) [Compound 184],Redroot pigweed plant response rating,pigweed; [14],6
same,Redroot pigweed plant response rating,pigweed; [2],0
same,Redroot pigweed plant response rating (0 to 10 scale),pigweed; [3],0
same,Redroot pigweed plant response rating,pigweed; [4],0
same,Redroot pigweed plant response rating,pigweed; [5],1
same,Redroot pigweed plant response rating,pigweed; [6],0
same,Redroot pigweed plant response rating,pigweed; [9],4
same,"Plant response rating (0 to 10; 0 is no effect, 10 is complete control), Redroot pigweed","pigweed; Rate 250 g/ha, Postemergence",7
same,Redroot pigweed plant response rating,pigweed; [8],7
same,"Plant response rating, Redroot pigweed",pigweed; [15],2
same,Sugarbeets plant response rating,sugar beet; [14],0
same,Sugarbeets plant response rating,sugar beet; [2],0
same,Sugarbeets plant response rating (0 to 10 scale),sugar beet; [3],0
same,Sugarbeets plant response rating,sugar beet; [4],0
same,Sugarbeets plant response rating,sugar beet; [5],0
same,Sugarbeets plant response rating,sugar beet; [6],2
same,Sugarbeets plant response rating,sugar beet; [9],2
same,"Plant response rating (0 to 10; 0 is no effect, 10 is complete control), Sugarbeets","sugar beet; Rate 250 g/ha, Postemergence",5
same,Sugarbeets plant response rating,sugar beet; [8],6
same,"Plant response rating, Sugarbeets",sugar beet; [15],2
same,Nutsedge plant response rating,purple nutsedge; [14],0
same,Nutsedge plant response rating,purple nutsedge; [2],0
same,Nutsedge plant response rating (0 to 10 scale),purple nutsedge; [3],0
same,Nutsedge plant response rating,purple nutsedge; [4],0
same,Nutsedge plant response rating,purple nutsedge; [5],0
same,Nutsedge plant response rating,purple nutsedge; [6],0
same,Nutsedge plant response rating,purple nutsedge; [9],0
same,"Plant response rating (0 to 10; 0 is no effect, 10 is complete control), Nutsedge","purple nutsedge; Rate 250 g/ha, Postemergence",0
same,Nutsedge plant response rating,purple nutsedge; [8],0
same,Rice plant response rating,rice; [10],0
same,Rice plant response rating,rice; [11],0
same,Rice plant response rating,rice; [12],0
same,"Plant response rating, Rice",rice; [13],0
same,Rice plant response rating,rice; [18],0
